Data taken from patent US20020188010A1, “Compositions of matter containing L-glutamine and pyridoxal-alpha-ketoglutarate” (priority 2001, published 2002).

Experiments:
IBS (6 yrs duration) = assay: Improvement of IBS in patients given L-glutamine alone or L-glutamine/PAK; type: in vivo
From the text: (§1) [table] While the compositions of the invention have been tested on patients suffering from disorders affecting the intestinal mucosa, the methods of the invention are appropriate for use in treating other diseases wherein stimulation of cell growth or repair of cells with natural rapid turn-over is desirable. Such diseases include, but are not limited to, leaky gut syndrome and other diseases of maldigestion, chronic fatigue syndrome, fibromyalgia, diabetes, thyroiditis and chronic viral disease. The combination therapy described herein will, by enhancing the growth and the repair of intestinal cells, increase the ability of the intestinal wall to reject and neutralize parasites and inhibit overgrowth of fungal organisms.

Ileitis (9 yrs duration) = assay: Improvement of ileitis in patients given L-glutamine alone or L-glutamine/PAK; type: in vivo
From the text: as §1

NC(=O)CC[C@H](N)C(=O)O [L-glutamine]
percent of improvement upon administration of the L-glutamine alone (IBS (6 yrs duration); dose 3 gm L-glutamine): none | percent of improvement upon administration of the L-glutamine alone (IBS (6 yrs duration); dose 15 gm L-glutamine): 25% | percent of improvement upon administration of the L-glutamine alone (IBS (6 yrs duration); dose 30 gm L-glutamine): 45% | percent of improvement upon administration of the L-glutamine alone (IBS (6 yrs duration); dose 60 gm L-glutamine): 85% | percent of improvement upon administration of the L-glutamine alone (Ileitis (9 yrs duration); dose 3 gm L-glutamine): 5% | percent of improvement upon administration of the L-glutamine alone (Ileitis (9 yrs duration); dose 15 gm L-glutamine): 20% | percent of improvement upon administration of the L-glutamine alone (Ileitis (9 yrs duration); dose 30 gm L-glutamine): 50% | percent of improvement upon administration of the L-glutamine alone (Ileitis (9 yrs duration); dose 60 gm L-glutamine): 90%
